Laboratory results from PubChem BioAssay AID1259407 (Chemical Carcinogenesis Research Information System (CCRIS), 2018).
Calls of active or inactive are those of the source. The rule behind the calls is not given here.

System: CCRIS mutagenicity, Ames/micronucleus/aberration tests
Assay: CCRIS mutagenicity studies

For `COc1cc(O)ccc1Nc1c2ccccc2nc2ccccc12`, the mutagenic call (Test System: AMES SALMONELLA TYPHIMURIUM, Strain/Indicator: TA1537, Metabolic Activation: NONE, Method: STANDARD PLATE) was “active; positive”.
In the case of `CCCCCCCCCCCCN=C(N)N`, the mutagenic call (End Point: In vitro chromosomal aberrations, Test System: Cultured human (male) lymphocytes, Metabolic Activation: None) is reported as “inactive; negative”, the mutagenic call (End Point: In vitro chromosomal aberrations, Test System: Cultured human (male) lymphocytes, Metabolic Activation: S-9) is reported as “inactive; negative” and the mutagenic call (End Point: In vivo micronucleus, Test System: Blood erythrocytes, Species: Mouse, Strain/Sex: ICR (male and female), 5-20/sex/dose, Route: Oral) is reported as “inactive; negative”. For the same compound, the mutagenic call (End Point: In vivo micrunucleus, Test System: Bone marrow polychromatic erythrocytes, Species: Mouse, Strain/Sex: Males and females, Route: Oral) was “inactive; negative”, the mutagenic call (Test System: Ames Salmonella typhimurium, Strain/Indicator: TA98, Metabolic Activation: None, Method: Plate incorporation) was “inactive; negative” and the mutagenic call (Test System: Ames Salmonella typhimurium, Strain/Indicator: TA98, Metabolic Activation: Rat, Liver, S-9, Aroclor, Method: Plate incorporation) was “inactive; negative”. The mutagenic call (Test System: Ames Salmonella typhimurium, Strain/Indicator: TA100, Metabolic Activation: None, Method: Plate incorporation) was “inactive; negative”, the mutagenic call (Test System: Ames Salmonella typhimurium, Strain/Indicator: TA100, Metabolic Activation: Rat, Liver, S-9, Aroclor, Method: Plate incorporation) was “inactive; negative” and the mutagenic call (Test System: Ames Salmonella typhimurium, Strain/Indicator: TA1535, Metabolic Activation: None, Method: Plate incorporation) was “inactive; negative”. The mutagenic call (Test System: Ames Salmonella typhimurium, Strain/Indicator: TA1535, Metabolic Activation: Rat, Liver, S-9, Aroclor, Method: Plate incorporation) was “inactive; negative”, the mutagenic call (Test System: Ames Salmonella typhimurium, Strain/Indicator: TA1537, Metabolic Activation: None, Method: Plate incorporation) was “inactive; negative” and the mutagenic call (Test System: Ames Salmonella typhimurium, Strain/Indicator: TA1537, Metabolic Activation: Rat, Liver, S-9, Aroclor, Method: Plate incorporation) was “inactive; negative”. For the same compound, the mutagenic call (Test System: Chinese hamster ovary (CHO) cells, Strain/Indicator: CHO/6-Thioguanine, Metabolic Activation: None) was “inactive; negative”, the mutagenic call (Test System: Chinese hamster ovary (CHO) cells, Strain/Indicator: CHO/6-Thioguanine, Metabolic Activation: S-9) was “inactive; negative” and the mutagenic call (Test System: E. coli, Strain/Indicator: WP2uvrA, Metabolic Activation: None, Method: Plate incorporation) was “inactive; negative”. For the same compound, the mutagenic call (Test System: E. coli, Strain/Indicator: WP2uvrA, Metabolic Activation: Rat, Liver, S-9, Method: Plate incorporation) was “inactive; negative”.
For `ClCCN(CCCl)c1ccc2ccccc2c1`, the mutagenic call (Test System: AMES SALMONELLA TYPHIMURIUM, Strain/Indicator: TA100, Metabolic Activation: NONE, Method: STANDARD PLATE) was “active; positive”, the mutagenic call (Test System: AMES SALMONELLA TYPHIMURIUM, Strain/Indicator: TA100, Metabolic Activation: RAT, LIVER, S-9, AROCLOR 1254, Method: STANDARD PLATE) was “active; positive” and the mutagenic call (Test System: AMES SALMONELLA TYPHIMURIUM, Strain/Indicator: TA100, Metabolic Activation: RAT, LIVER, S-9, AROCLOR (10%), Method: STANDARD PLATE) was “active; positive”. The mutagenic call (Test System: AMES SALMONELLA TYPHIMURIUM, Strain/Indicator: TA100, Metabolic Activation: RAT, LIVER, S-9, AROCLOR (WITHOUT ADDED COFACTORS), Method: STANDARD PLATE) was “active; positive”, the mutagenic call (Test System: AMES SALMONELLA TYPHIMURIUM, Strain/Indicator: TA1535, Metabolic Activation: NONE, Method: STANDARD PLATE) was “active; positive” and the mutagenic call (Test System: AMES SALMONELLA TYPHIMURIUM, Strain/Indicator: TA1535, Metabolic Activation: RAT, LIVER, S-9, AROCLOR (10%), Method: STANDARD PLATE) was “active; positive”.
For `CCCCC(CC)COP(=O)(Oc1ccccc1)Oc1ccccc1` (stereo not given), the mutagenic call (Test System: AMES SALMONELLA TYPHIMURIUM, Strain/Indicator: TA98, Metabolic Activation: HAMSTER, LIVER, S-9, AROCLOR 1254 (10%), Method: PREINCUBATION) was “inactive; negative”, the mutagenic call (Test System: AMES SALMONELLA TYPHIMURIUM, Strain/Indicator: TA98, Metabolic Activation: NONE, Method: PREINCUBATION) was “inactive; negative” and the mutagenic call (Test System: AMES SALMONELLA TYPHIMURIUM, Strain/Indicator: TA98, Metabolic Activation: RAT, LIVER, S-9, AROCLOR 1254 (10%), Method: PREINCUBATION) was “inactive; negative”. The mutagenic call (Test System: AMES SALMONELLA TYPHIMURIUM, Strain/Indicator: TA100, Metabolic Activation: HAMSTER, LIVER, S-9, AROCLOR 1254 (10%), Method: PREINCUBATION) was “inactive; negative”, the mutagenic call (Test System: AMES SALMONELLA TYPHIMURIUM, Strain/Indicator: TA100, Metabolic Activation: NONE, Method: PREINCUBATION) was “inactive; negative” and the mutagenic call (Test System: AMES SALMONELLA TYPHIMURIUM, Strain/Indicator: TA100, Metabolic Activation: RAT, LIVER, S-9, AROCLOR 1254 (10%), Method: PREINCUBATION) was “inactive; negative”. For the same compound, the mutagenic call (Test System: AMES SALMONELLA TYPHIMURIUM, Strain/Indicator: TA1535, Metabolic Activation: HAMSTER, LIVER, S-9, AROCLOR 1254 (10%), Method: PREINCUBATION) was “inactive; negative”, the mutagenic call (Test System: AMES SALMONELLA TYPHIMURIUM, Strain/Indicator: TA1535, Metabolic Activation: NONE, Method: PREINCUBATION) was “inactive; negative” and the mutagenic call (Test System: AMES SALMONELLA TYPHIMURIUM, Strain/Indicator: TA1535, Metabolic Activation: RAT, LIVER, S-9, AROCLOR 1254 (10%), Method: PREINCUBATION) was “inactive; negative”. For the same compound, the mutagenic call (Test System: AMES SALMONELLA TYPHIMURIUM, Strain/Indicator: TA1537, Metabolic Activation: HAMSTER, LIVER, S-9, AROCLOR 1254 (10%), Method: PREINCUBATION) was “inactive; negative”, the mutagenic call (Test System: AMES SALMONELLA TYPHIMURIUM, Strain/Indicator: TA1537, Metabolic Activation: NONE, Method: PREINCUBATION) was “inactive; negative” and the mutagenic call (Test System: AMES SALMONELLA TYPHIMURIUM, Strain/Indicator: TA1537, Metabolic Activation: RAT, LIVER, S-9, AROCLOR 1254 (10%), Method: PREINCUBATION) was “inactive; negative”.
